Strand notation (5' to 3'): a small letter for the sugar, then the base; units joined by * are phosphorothioate-linked, units joined directly phosphodiester-linked; [ ] holds rarer units or linkages, { } end groups; capitals alone tell only the bases. e = 2'-O-(2-methoxyethyl) (MOE); [5mC] = 5-methylcytosine; d = 2'-deoxy (DNA)
Assays:
human RNase H2 [1] = experiment: Antisense inhibition of human RNase H2 expression, Northern blot; format: cell-based; design: % of control / % inhibition: concentration or dose not given beside the values; conditions: for % inhibition / % of control: RNase H2 expression, Northern blot; for inhibition of human RNase H2 expression: summary of Table 3; for reduction of expression: dose response, A549 cells
Experimental: Total RNA was isolated from different human cell lines (ATCC, Rockville, Md.) using the guanidine isothiocyanate method (21). Ten μg of total RNA was separated on a 1.2% agarose/formaldehyde gel and transferred to Hybond-N+ (Amersham, Arlington Heights, Ill.) followed by fixing using UV crosslinker (Strategene, La Jolla, Calif.). The premade multiple tissue Northern Blot membranes were also purchased from Clontech (Palo Alto, Calif.). To detect RNase H2 mRNA, hybridization was performed by using ^32P-labeled human RNase H II cDNA in Quik-Hyb buffer (Strategene, La Jolla, Calif.) at 68 EC for 2 hours. After hybridization, membranes were washed in a final stringency of 0.1×SSC/0.1% SDS at 60 EC for 30 minutes and subjected to auto-radiography.
A series of antisense oligonucleotides were targeted to the human RNase H2 polynucleotide sequence (SEQ ID NO: 11). These compounds were all 2′-O-methoxyethyl “gapmers” with an 8-nucleotide deoxy gap and a phosphorothioate backbone. Cytosine residues are 5-methyl cytosines. The 2′-O-methoxyethyl (2′MOE) nucleotides are shown in bold.
The oligonucleotides shown in Table 2 were tested by Northern blot analysis for their ability to inhibit expression of human RNase H2. Results are expressed in Table 3.

human RNase H2 [2] = experiment: Screen of antisense compounds (gapped oligonucleotides, siRNA) in cells against human RNase H2; format: cell-based; design: concentration or dose not given beside the values; conditions: percent inhibition of RNase H enzyme levels; target H2
Experimental: Oligonucleotides were identified by screening in cells (Crooke, S. T., 2003, in Burger's Medicinal Chemistry, 6th ed., pp 115-166; Vickers et al., 2003, J. Biol. Chem. 278, 7108-7118).
For this experiment oligoribonucleotides were purchased from Dharmacon Research, Inc. (Boulder Colo.). siRNA duplexes were formed in the solution containing 20 μM each oligoribonucleotide (sense strand shown and antisense strand complement—generally with a one base overhang at each end), 100 mM potassium acetate, 30 mM HEPES-KOH pH 7.4, 2 mM magnesium acetates. Reactions were heated for 1 minute at 90° C. and incubated for 1 hour at 37° C. The control gapped antisense oligonucleotide, is ISIS 29848, […] (SEQ ID NO: 104), where N is a mixture of A, G, C and T. Bold residues are 2′-MOE residues. The siRNA controls are either the single strand sense RNA strand or other RNA duplexes that are not complementary to the target. For transfection of cells, cells were incubated with a mixture of 3 μg/ml lipofectin (Invitrogen, Carlsbad Calif.) per 1-200 nM oligonucleotide or siRNA in OptiMEM medium (Invitrogen). After 4 hours the transfection mixture was aspirated from the cells and replaced with fresh medium containing 10% fetal bovine serum and the cells were incubated at 37° C. in 5% CO2 until harvest or second transfection.

| Sequence | % inhibition (human RNase H2 [1]) [%] | % of control (human RNase H2 [1]) [%] | inhibition of human RNase H2 expression (human RNase H2 [1]) | % Inhib (human RNase H2 [2]) [%] | reduction of expression (human RNase H2 [1]; 200 nM) | reduction of expression (human RNase H2 [1]; lowest dose tested 50 nM) [%] |
| --- | --- | --- | --- | --- | --- | --- |
| TTTTGTCTTGGGATCATTGG (eT*eT*eT*eT*eG*eT*d[5mC]*dT*dT*dG*dG*dG*dA*dT*e[5mC]*eA*eT*eT*eG*eG) [ISIS 21956] | 63 | 37 | at least 50% | 63.1 |  |  |
| GGACAATAACAGATGGCGTA (eG*eG*eA*e[5mC]*eA*eA*dT*dA*dA*d[5mC]*dA*dG*dA*dT*eG*eG*e[5mC]*eG*eT*eA) [ISIS 21948] | 62 | 38 | at least 50% |  |  |  |
| AGCTGAACCGGACAAACTGG (antisense eA*eG*e[5mC]*eT*eG*eA*dA*d[5mC]*d[5mC]*dG*dG*dA*d[5mC]*dA*eA*eA*e[5mC]*eT*eG*eG) [ISIS 21957, 2′-O-methoxyethyl gapmer, 8-nucleotide deoxy gap, phosphorothioate backbone, targeted to human RNase H2] | 68 | 32 | at least 50% | 68.1 |  |  |
| UAAGGAGAACCACACGUAGGG [Si 21960] |  |  |  | 9.9 |  |  |
| CGCGCCTGGTATGTCTCTGG (all C 5-methyl, all phosphorothioate, sugars by position not given here; further chemistry not fully specified) [ISIS 21952, 2′-O-methoxyethyl gapmer, 8-nucleotide deoxy gap, phosphorothioate backbone, targeted to human RNase H2] | 89 | 11 | at least 50% |  | approximately 70% | 60 |
| ACTCCAGGCCGCGTTCCAGG (antisense eA*e[5mC]*eT*e[5mC]*e[5mC]*eA*dG*dG*d[5mC]*d[5mC]*dG*d[5mC]*dG*dT*eT*e[5mC]*e[5mC]*eA*eG*eG) [ISIS 21959, 2′-O-methoxyethyl gapmer, 8-nucleotide deoxy gap, phosphorothioate backbone, targeted to human RNase H2] | 82 | 18 | at least 50% | 81.2 |  |  |
| GGCAAUUCGUGGAGAAACUGC [Si 21955] |  |  |  | 19.2 |  |  |
| CCAGUUUGUCCGGUUCAGCUG [Si 21957] |  |  |  | 42.4 |  |  |
| CGCCTCAGCCGCCACCACCA (all C 5-methyl, all phosphorothioate, sugars by position not given here; further chemistry not fully specified) [ISIS 21946, 2′-O-methoxyethyl gapmer, 8-nucleotide deoxy gap, phosphorothioate backbone, targeted to human RNase H2] | 50 | 50 | at least 50% |  |  |  |
| CGGTGTCCACGAATACCTGG (all C 5-methyl, all phosphorothioate, sugars by position not given here; further chemistry not fully specified) [ISIS 21951, 2′-O-methoxyethyl gapmer, 8-nucleotide deoxy gap, phosphorothioate backbone, targeted to human RNase H2] | 74 | 26 | at least 50% |  |  |  |
| GCACACTCCCACCTTGCTTC (chemistry not fully specified) [ISIS 21961, 2′-O-methoxyethyl gapmer, 8-nucleotide deoxy gap, phosphorothioate backbone, targeted to human RNase H2] | 7 | 93 |  | 6.1 |  |  |
| GGUCCAGCUACUUCCUUUUGG [Si 21962] |  |  |  | 0 |  |  |
| GGTAGAGGGCATCTGCTTTG (eG*eG*eT*eA*eG*eA*dG*dG*dG*d[5mC]*dA*dT*d[5mC]*dT*eG*e[5mC]*eT*eT*eT*eG) [ISIS 21953] | 59 | 41 | at least 50% |  |  |  |
| CCTCTTTCTCCAGGATGGTC (antisense e[5mC]*e[5mC]*eT*e[5mC]*eT*eT*dT*d[5mC]*dT*d[5mC]*d[5mC]*dA*dG*dG*eA*eT*eG*eG*eT*e[5mC]) [ISIS 21958, 2′-O-methoxyethyl gapmer, 8-nucleotide deoxy gap, phosphorothioate backbone, targeted to human RNase H2] | 38 | 62 |  | 38.0 |  |  |
| CCUGGAACGCGGCCUGGAGUC [Si 21959] |  |  |  | 53.8 |  |  |
| CACAGGCGAACTCAGGCGAC (all C 5-methyl, all phosphorothioate, sugars by position not given here; further chemistry not fully specified) [ISIS 21947, 2′-O-methoxyethyl gapmer, 8-nucleotide deoxy gap, phosphorothioate backbone, targeted to human RNase H2] | 63 | 37 | at least 50% |  |  |  |
| CAGTTTCTCCACGAATTGCC (antisense e[5mC]*eA*eG*eT*eT*eT*d[5mC]*dT*d[5mC]*d[5mC]*dA*d[5mC]*dG*dA*eA*eT*eT*eG*e[5mC]*e[5mC]) [ISIS 21955, 2′-O-methoxyethyl gapmer, 8-nucleotide deoxy gap, phosphorothioate backbone, targeted to human RNase H2] | 33 | 67 |  | 33.3 |  |  |
| CCCGCTCGCTCTCCAATAGG (all C 5-methyl, all phosphorothioate, sugars by position not given here; further chemistry not fully specified) [ISIS 21949, 2′-O-methoxyethyl gapmer, 8-nucleotide deoxy gap, phosphorothioate backbone, targeted to human RNase H2] | 82 | 18 | at least 50% |  |  |  |
| GACCAUCCUGGAGAAAGAGGC [Si 21958] |  |  |  | 45.8 |  |  |
| GAAGCAAGGUGGGAGUGUGCU [Si 21961] |  |  |  | 15.2 |  |  |
| CCCAGCCGACAAAGTCCGTG (all C 5-methyl, all phosphorothioate, sugars by position not given here; further chemistry not fully specified) [ISIS 21950, 2′-O-methoxyethyl gapmer, 8-nucleotide deoxy gap, phosphorothioate backbone, targeted to human RNase H2] | 68 | 32 | at least 50% |  |  |  |
| CCACCTTGGCACAGATGCTG (all C 5-methyl, all phosphorothioate, sugars by position not given here; further chemistry not fully specified) [ISIS 21954, 2′-O-methoxyethyl gapmer, 8-nucleotide deoxy gap, phosphorothioate backbone, targeted to human RNase H2] | 77 | 23 | at least 50% |  |  |  |
